Drawing on PubChem BioAssay (NCI), this text covers GI50 and TGI for 10 molecules.

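Results reflect a 48-hour exposure of cells in 96-well plates to compound at five concentrations. At the GI50, growth is halved. TGI denotes the concentration required for complete inhibition of growth.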

What all share (assay): NCI anticancer screen, dose series, 48 h
The subject of test [1] is OVCAR-5 ovarian.
Test [2] has as its system UACC-62 melanoma.
For test [3], the system named is KM12 colon.
Test [4] concerns RPMI-8226 leukemia.
Test [5] concerns NCI/ADR-RES ovarian.
In test [6] the test system is M14 melanoma.
Test [7] concerns TK-10 renal.
Test [8] deals with SF-268 CNS.

As to `CCCCCCCCCCCCCCCCCC(=O)[O][Sn]([CH2]CCC)([CH2]CCC)[CH2]CCC`, the GI50 in test [1] was 0.137 µM; in test [2] it was 0.176 µM; in test [3], 0.124 µM; in test [4], 0.139 µM; in test [5], 0.177 µM; in test [6], 0.169 µM. The GI50 in test [7] was 0.164 µM; in test [8] it was 0.141 µM. Moreover, the TGI in test [1] is 0.34 µM; in test [2], 0.45 µM; in test [3], 0.266 µM; in test [4] it was 0.602 µM; in test [5], 0.438 µM; in test [6], 0.32 µM. The TGI in test [7] is 0.311 µM; in test [8], 0.337 µM.

`O=[n+]1cnn([O-])c2ccccc21`: the TGI in test [1] is greater than 100 µM; in test [2], 39.4 µM; in test [3], 40.4 µM; in test [4], greater than 100 µM; in test [5], greater than 100 µM; in test [6], 64 µM. The TGI in test [7] and in test [8] was greater than 100 µM in each case.

For `O=C(/C=C/c1ccccc1O)c1ccccc1`, the GI50 in test [1] is 15.3 µM; in test [2], 13.1 µM; in test [3], 1.77 µM; in test [4], 2.44 µM; in test [5], 21.7 µM; in test [6], 8.23 µM. Moreover, the GI50 was 11.9 µM in test [7] and 6.34 µM in test [8]. Moreover, the TGI in test [1] is 31.1 µM; in test [2] it was 25.9 µM; in test [3], 4.16 µM; in test [4], 6.68 µM; in test [5], greater than 100 µM; in test [6], 21.4 µM. The TGI was found to be 24.7 µM in test [7] and 21.2 µM in test [8].

Regarding `CN(C)c1cc2c(cc1Sc1nc3c(N)nccc3n1CCNCC(C)(C)C)OCO2`, the GI50 is 1.12 µM in test [1]; 0.432 µM in test [2]; 0.305 µM in test [3]; 0.658 µM in test [4]; 0.731 µM in test [5]; 0.532 µM in test [6]. Further, the GI50 is 0.531 µM in test [7] and 1.08 µM in test [8]. In addition, the TGI stood at 28.1 µM in test [1]; 5.41 µM in test [2]; 2.79 µM in test [3]; 19.4 µM in test [4]; 24.7 µM in test [5]; 15.9 µM in test [6]. Besides, the TGI came to 19.4 µM in test [7] and 22.4 µM in test [8].

For `COc1cc2c3c(n(CCCN=[N+]=[N-])c(=O)c2cc1OC)-c1ccc(N)cc1C3=O`, the GI50 in test [1] is 0.633 µM; in test [2], 0.082 µM; in test [3], 0.334 µM; in test [4] it was 0.0306 µM; in test [5], 0.316 µM; in test [6], 0.0591 µM. The GI50 in test [7] was 0.71 µM; in test [8] it was 0.34 µM. Also, the TGI in test [1] was 1.33 µM; in test [2] it was 0.451 µM; in test [3] it was 1.16 µM; in test [4], 0.446 µM; in test [5], 1.41 µM; in test [6], 0.237 µM. Further, the figures for the TGI in test [7] and in test [8] were 3.93 µM and greater than 32.4 µM, respectively.

Consider `C[C@H]1O[C@@H](O[C@H]2[C@@H](O)C[C@H](O[C@H]3[C@@H](O)C[C@H](O[C@H]4CC[C@]5(C)C6C[C@@H](O)[C@]7(C)[C@@H](C8=CC(=O)OC8)CC[C@]7(O)C6CC[C@@H]5C4)O[C@@H]3C)O[C@@H]2C)C[C@H](O)[C@@H]1O` (some centres undefined), for which the GI50 in test [1] is 0.114 µM; in test [2], 0.103 µM; in test [3], 0.144 µM; in test [4], 0.117 µM; in test [5], 0.0552 µM; in test [6], 0.107 µM. Further, the GI50 in test [7] was 0.0266 µM; in test [8], 0.0253 µM. The TGI in test [1] turned out to be 0.286 µM; in test [2], 0.228 µM; in test [3], 0.544 µM; in test [4], 0.377 µM; in test [5] it was 0.147 µM; in test [6], 0.241 µM. Also, the TGI in test [7] amounted to 0.213 µM; in test [8], 0.083 µM.

Turning to `O=C1C(=O)c2ccccc2C=C1[N+](=O)[O-]`, the TGI was greater than 100 µM in test [1]; 80.1 µM in test [2]; greater than 100 µM in test [3]; greater than 100 µM in test [4]; 76.4 µM in test [5]; greater than 100 µM in test [6]. Moreover, the TGI in test [7] and in test [8] was greater than 100 µM in each case.

Consider `NC(=O)c1cccc(N)c1`, for which the GI50 in test [1], in test [2], in test [3], in test [4], in test [5] and in test [6] was greater than 100 µM throughout. Moreover, the GI50 in test [7] and in test [8] was greater than 100 µM in each case. Besides, the TGI in test [1], in test [2], in test [3], in test [4], in test [5] and in test [6] was greater than 100 µM throughout. For the same molecule, the TGI in test [7] and in test [8] was greater than 100 µM each time.

For the molecule `Cc1ccccc1NC(=O)N/C(N)=N/c1nc2ccccc2s1`, the GI50 was 0.488 µM in test [1]; 0.0425 µM in test [2]; 0.0399 µM in test [3]; 0.0402 µM in test [4]; 0.0372 µM in test [5]; 0.0348 µM in test [6]. Besides, the GI50 in test [7] is 3.78 µM; in test [8], 1.5 µM. Also, the TGI was greater than 100 µM in test [1]; greater than 100 µM in test [2]; greater than 100 µM in test [3]; 2.46 µM in test [4]; 5.84 µM in test [5]; 1.41 µM in test [6]. For the same molecule, the TGI in test [7] and in test [8] was greater than 100 µM each time.

For the molecule `CN(C)c1cc2c(Nc3ccc4nc(Cc5ccccc5)[nH]c4c3)ncnc2cn1`, the GI50 in test [1] was 16.6 µM; in test [2] it was greater than 18.3 µM; in test [3], 13.8 µM; in test [4] it was 11.4 µM; in test [5] it was greater than 25 µM; in test [6] it was greater than 25 µM. Further, the GI50 in test [7] is 4.9 µM; in test [8], greater than 23.4 µM. Besides, the TGI in test [1], in test [2], in test [3], in test [4], in test [5] and in test [6] was greater than 25 µM each time. The TGI in test [7] and in test [8] was greater than 25 µM in each case.
